The source of these data is ChEMBL document CHEMBL1909046, “DrugMatrix in vitro pharmacology data”.

Test [1] has as its target Aldo-keto reductase family 1 member B1 (Rattus norvegicus, UniProt P07943). In words: biochemical. It counts as tissue-based, Lens of camera-type eye.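 Note: inhibition of aldose reductase enzyme activity, measured with DL-glyceraldehyde as the substrate; in other assays of this panel Not Active means under 50% inhibition at 10 µM.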
The next test concerns the target T1, B2 bradykinin receptor (Homo sapiens, UniProt P30411). Note: in other assays of this panel Not Active means under 50% inhibition at 10 µM.
T1 sequence (P30411 whole entry): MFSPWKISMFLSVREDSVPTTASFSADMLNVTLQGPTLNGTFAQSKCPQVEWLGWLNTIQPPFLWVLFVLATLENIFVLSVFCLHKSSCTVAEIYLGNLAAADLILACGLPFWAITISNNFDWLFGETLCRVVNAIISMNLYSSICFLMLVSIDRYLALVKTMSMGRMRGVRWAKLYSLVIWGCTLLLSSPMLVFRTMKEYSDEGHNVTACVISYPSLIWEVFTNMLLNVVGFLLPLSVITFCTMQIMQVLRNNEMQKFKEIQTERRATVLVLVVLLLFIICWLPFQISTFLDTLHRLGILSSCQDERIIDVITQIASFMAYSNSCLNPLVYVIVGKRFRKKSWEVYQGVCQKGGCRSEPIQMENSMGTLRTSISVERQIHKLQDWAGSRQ
It counts as cell membranes, Membrane. The conditions noted are these: chem-1.

The target of test [2] is Vascular endothelial growth factor receptor 1 (Homo sapiens, UniProt P17948). Put plainly: biochemical. It counts as cell-based, HUVEC. The conditions noted are these: huvec. Note: in other assays of this panel Not Active means under 50% inhibition at 10 µM.
Vascular endothelial growth factor receptor 1, sequence (P17948 whole entry): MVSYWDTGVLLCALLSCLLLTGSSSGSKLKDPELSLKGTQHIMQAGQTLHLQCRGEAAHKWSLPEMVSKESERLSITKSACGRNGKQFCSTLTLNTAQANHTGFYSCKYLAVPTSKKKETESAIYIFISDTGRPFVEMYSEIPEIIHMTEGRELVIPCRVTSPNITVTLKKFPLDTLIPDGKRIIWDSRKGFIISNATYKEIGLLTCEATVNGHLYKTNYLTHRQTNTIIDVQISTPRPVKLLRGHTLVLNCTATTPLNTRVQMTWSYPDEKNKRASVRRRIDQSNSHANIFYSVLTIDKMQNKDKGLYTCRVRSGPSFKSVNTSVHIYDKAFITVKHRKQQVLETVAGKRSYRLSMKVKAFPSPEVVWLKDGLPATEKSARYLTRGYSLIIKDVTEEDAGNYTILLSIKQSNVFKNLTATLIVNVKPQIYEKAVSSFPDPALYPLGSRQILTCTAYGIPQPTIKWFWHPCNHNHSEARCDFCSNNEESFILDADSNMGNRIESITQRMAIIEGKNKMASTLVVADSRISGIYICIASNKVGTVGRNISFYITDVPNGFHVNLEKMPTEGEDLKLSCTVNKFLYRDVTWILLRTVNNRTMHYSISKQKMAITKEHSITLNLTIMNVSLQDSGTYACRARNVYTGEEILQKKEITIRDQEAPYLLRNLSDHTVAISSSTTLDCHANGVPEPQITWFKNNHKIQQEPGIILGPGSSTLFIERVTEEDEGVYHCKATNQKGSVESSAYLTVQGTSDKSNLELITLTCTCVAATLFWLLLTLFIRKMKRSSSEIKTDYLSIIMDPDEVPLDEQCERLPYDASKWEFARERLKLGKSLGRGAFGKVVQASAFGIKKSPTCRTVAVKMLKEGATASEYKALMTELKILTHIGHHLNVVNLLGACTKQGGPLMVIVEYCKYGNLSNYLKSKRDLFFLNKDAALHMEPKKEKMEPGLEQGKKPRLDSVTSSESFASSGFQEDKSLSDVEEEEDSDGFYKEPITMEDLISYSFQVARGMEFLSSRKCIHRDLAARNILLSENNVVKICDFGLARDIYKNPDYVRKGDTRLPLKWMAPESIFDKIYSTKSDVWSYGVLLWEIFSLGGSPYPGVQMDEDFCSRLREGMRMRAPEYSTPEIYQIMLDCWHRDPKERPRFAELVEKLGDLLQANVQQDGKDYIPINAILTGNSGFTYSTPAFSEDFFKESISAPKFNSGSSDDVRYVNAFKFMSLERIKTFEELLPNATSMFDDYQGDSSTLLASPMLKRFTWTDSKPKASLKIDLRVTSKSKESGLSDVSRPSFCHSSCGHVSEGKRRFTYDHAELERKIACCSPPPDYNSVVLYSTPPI
The target in test [3] is T2, C-X-C chemokine receptor type 2 (Homo sapiens, UniProt P25025). Note: in other assays of this panel Not Active means under 50% inhibition at 10 µM.
T2 sequence (P25025 whole entry): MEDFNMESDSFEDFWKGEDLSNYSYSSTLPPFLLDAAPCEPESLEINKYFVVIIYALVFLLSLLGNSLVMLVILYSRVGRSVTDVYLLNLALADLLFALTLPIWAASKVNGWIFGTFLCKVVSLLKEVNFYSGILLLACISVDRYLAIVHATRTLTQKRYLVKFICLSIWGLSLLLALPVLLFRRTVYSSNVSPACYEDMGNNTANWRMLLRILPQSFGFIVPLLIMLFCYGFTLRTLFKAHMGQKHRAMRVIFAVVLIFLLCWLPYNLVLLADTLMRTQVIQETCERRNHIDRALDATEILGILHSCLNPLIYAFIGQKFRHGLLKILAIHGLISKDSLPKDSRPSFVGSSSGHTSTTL
It counts as cell membranes, Membrane. The conditions noted are these: cho-k1.

A short description of test [4]: DRUGMATRIX: GABAA, Chloride Channel, TBOB radioligand binding (ligand: [3H] TBOB). It counts as cell membranes, Rattus norvegicus, Wistar, Cerebral cortex, Membrane. The conditions noted are these: Not Active = under 50% inhibition at 10 µM.
The next test deals with Nitric oxide synthase 1 (Rattus norvegicus, UniProt P29476). It counts as tissue-based, Cerebellum.
Nitric oxide synthase 1, sequence (P29476 whole entry): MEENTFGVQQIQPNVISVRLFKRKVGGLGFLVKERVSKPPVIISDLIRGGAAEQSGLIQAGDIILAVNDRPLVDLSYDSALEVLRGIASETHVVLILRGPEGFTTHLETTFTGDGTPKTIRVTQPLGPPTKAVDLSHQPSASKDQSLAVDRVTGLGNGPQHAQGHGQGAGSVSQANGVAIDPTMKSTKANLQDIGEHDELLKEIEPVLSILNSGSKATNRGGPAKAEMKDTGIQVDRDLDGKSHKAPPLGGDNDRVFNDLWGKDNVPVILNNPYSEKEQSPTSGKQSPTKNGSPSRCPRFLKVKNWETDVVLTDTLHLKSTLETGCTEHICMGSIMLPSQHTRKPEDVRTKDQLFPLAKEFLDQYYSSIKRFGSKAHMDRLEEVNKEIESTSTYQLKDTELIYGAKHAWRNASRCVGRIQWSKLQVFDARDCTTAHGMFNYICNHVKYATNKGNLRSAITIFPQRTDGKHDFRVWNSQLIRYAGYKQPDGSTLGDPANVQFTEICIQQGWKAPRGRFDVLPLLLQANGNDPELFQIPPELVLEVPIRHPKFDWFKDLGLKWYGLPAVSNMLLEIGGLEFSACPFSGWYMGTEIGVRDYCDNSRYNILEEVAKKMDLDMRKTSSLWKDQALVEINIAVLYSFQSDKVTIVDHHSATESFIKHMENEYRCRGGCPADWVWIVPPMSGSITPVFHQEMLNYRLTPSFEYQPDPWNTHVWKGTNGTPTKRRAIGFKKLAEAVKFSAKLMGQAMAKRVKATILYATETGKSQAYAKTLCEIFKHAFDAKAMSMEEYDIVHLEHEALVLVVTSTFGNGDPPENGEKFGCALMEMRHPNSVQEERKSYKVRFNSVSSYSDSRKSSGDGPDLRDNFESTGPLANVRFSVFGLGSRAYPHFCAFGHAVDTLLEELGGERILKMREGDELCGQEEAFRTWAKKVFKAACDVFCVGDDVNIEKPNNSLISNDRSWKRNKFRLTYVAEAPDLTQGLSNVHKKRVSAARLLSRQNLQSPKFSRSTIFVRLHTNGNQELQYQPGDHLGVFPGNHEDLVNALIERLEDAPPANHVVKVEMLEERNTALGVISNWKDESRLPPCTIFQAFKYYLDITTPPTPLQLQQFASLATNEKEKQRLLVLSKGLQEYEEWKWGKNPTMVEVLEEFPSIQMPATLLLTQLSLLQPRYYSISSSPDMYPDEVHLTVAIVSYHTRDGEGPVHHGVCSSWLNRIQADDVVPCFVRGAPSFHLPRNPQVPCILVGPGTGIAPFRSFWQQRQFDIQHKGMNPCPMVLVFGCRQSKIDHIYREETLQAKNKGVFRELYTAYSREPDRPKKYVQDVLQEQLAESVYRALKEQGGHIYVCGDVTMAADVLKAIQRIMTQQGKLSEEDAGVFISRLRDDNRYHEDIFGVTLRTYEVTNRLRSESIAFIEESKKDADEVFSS
For test [5], the target named is Protein kinase C alpha type (Homo sapiens, UniProt P17252). It counts as cell-based. The conditions noted are these: sf9.
In test [6] the target is T3, Receptor-type tyrosine-protein phosphatase C (Homo sapiens, UniProt P08575).
T3 sequence (P08575 whole entry): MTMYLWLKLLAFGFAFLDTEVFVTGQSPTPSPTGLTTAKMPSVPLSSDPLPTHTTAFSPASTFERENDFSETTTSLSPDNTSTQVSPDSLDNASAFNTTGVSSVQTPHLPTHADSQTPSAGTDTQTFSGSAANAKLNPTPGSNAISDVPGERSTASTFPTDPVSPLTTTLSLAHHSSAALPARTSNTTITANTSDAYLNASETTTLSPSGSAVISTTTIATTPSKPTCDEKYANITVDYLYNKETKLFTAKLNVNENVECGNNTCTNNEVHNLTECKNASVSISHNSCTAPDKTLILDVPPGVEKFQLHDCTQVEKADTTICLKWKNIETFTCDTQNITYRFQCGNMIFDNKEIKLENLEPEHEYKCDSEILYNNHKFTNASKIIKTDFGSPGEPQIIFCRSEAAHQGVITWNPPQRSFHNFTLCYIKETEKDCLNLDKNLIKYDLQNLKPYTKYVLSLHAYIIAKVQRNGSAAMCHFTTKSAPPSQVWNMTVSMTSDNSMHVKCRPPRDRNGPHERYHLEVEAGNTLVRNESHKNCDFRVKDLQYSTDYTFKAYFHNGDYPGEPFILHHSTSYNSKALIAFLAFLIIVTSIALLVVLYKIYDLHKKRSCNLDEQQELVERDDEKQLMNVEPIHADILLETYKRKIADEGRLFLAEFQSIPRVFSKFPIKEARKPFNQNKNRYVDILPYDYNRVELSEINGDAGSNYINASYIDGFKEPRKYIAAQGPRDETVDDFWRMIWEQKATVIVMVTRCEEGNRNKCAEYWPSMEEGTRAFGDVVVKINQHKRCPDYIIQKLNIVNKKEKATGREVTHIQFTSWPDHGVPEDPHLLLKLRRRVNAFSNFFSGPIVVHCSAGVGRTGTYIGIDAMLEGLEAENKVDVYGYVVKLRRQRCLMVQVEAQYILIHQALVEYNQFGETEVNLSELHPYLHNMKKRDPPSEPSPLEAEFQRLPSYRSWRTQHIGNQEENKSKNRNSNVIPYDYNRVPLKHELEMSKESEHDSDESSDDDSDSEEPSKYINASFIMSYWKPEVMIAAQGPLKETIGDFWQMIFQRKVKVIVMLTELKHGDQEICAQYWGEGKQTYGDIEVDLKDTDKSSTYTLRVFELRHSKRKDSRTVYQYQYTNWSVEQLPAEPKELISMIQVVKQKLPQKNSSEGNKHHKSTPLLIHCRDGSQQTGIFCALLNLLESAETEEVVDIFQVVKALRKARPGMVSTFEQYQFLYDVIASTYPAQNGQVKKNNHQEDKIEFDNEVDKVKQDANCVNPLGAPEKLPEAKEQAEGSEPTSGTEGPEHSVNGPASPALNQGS
Further details: species or system Escherichia coli.

A short description of test [7]: DRUGMATRIX: Purinergic P2X radioligand binding (ligand: [3H] alpha, beta-Methylene-ATP). It counts as cell membranes, Oryctolagus cuniculus, New Zealand albino, Urinary bladder, Membrane. The conditions noted are these: Not Active = under 50% inhibition at 10 µM.

`COc1cc(N)nc2[nH]c(-c3ccc(F)cc3)c(-c3ccncc3)c12`: the IC50 entry (in [1]; at B2 bradykinin receptor; in test [2]; in [3]; in test [4]; on Nitric oxide synthase 1) was “Not Active” each time. Moreover, the IC50 entry in [5], in test [6] and in test [7] was “Not Active” throughout. The Ki result in [4] and in test [7] was “Not Active” each time.
On to `CNS(=O)(=O)Cc1ccc2[nH]cc(CCN(C)C)c2c1`, for which the IC50 result (in test [1]; on B2 bradykinin receptor; in test [2]; in test [3]; in test [4]; on Nitric oxide synthase 1) was “Not Active” throughout. Also, the IC50 entry in test [5], in test [6] and in [7] was “Not Active” each time. The Ki entry in [4] and in [7] was “Not Active” in each case.
In the case of `CCCc1nn(C)c2c(=O)[nH]c(-c3cc(S(=O)(=O)N4CCN(C)CC4)ccc3OCC)nc12`, the half-maximal inhibitory concentration (IC50) result (in [1]; against B2 bradykinin receptor; in test [2]; in [3]; in [4]; against Nitric oxide synthase 1) was “Not Active” each time. The IC50 entry in test [5], in test [6] and in test [7] was “Not Active” throughout. Also, the Ki result in test [4] and in test [7] was “Not Active” in each case.
Take `COc1ccc(/C=C/C(=O)Nc2ccccc2C(=O)O)cc1OC`: the IC50 result (in test [1]; on B2 bradykinin receptor; in test [2]; in test [3]; in test [4]; against Nitric oxide synthase 1) was “Not Active” throughout. Also, the IC50 entry in test [5], in [6] and in test [7] was “Not Active” throughout. Besides, the Ki result in test [4] and in test [7] was “Not Active” each time.
In the case of `CCOC(N)=O`, the IC50 entry (in [1]; against B2 bradykinin receptor; in test [2]; in [3]; in test [4]; on Nitric oxide synthase 1) was “Not Active” throughout. Besides, the half-inhibitory concentration (IC50) entry in test [5], in [6] and in test [7] was “Not Active” each time. Moreover, the Ki entry in test [4] and in [7] was “Not Active” in each case.
Regarding `CC(=O)Nc1nnc(S(N)(=O)=O)s1` [ACETAZOLAMIDE], the IC50 entry (in test [1]; at B2 bradykinin receptor; in test [2]; in [3]; at Nitric oxide synthase 1; in test [5]) was “Not Active” each time. In [6], the concentration for half-maximal inhibition (IC50) (in general, the concentration at which inhibition is half-maximal) is given as “Not Active”.
As for `O=c1[nH]c2ccccc2n1CCCN1CCC(n2c(=O)[nH]c3cc(Cl)ccc32)CC1` [DOMPERIDONE], the IC50 entry (in test [1]; against B2 bradykinin receptor; in test [2]; in test [3]; against Nitric oxide synthase 1; in test [5]) was “Not Active” throughout. For the same molecule, the IC50 result in test [6] is given as “Not Active”.
`CC1=C(CC(=O)O)c2cc(F)ccc2/C1=C\c1ccc(S(C)(=O)=O)cc1` [EXISULIND]: the IC50 is 269 nM in test [1] (read-out: IC50); “Not Active” against B2 bradykinin receptor; “Not Active” in test [2]; “Not Active” in test [3]; “Not Active” in test [4]; “Not Active” on Nitric oxide synthase 1. The IC50 entry in test [5], in test [6] and in test [7] was “Not Active” in each case. Besides, the Ki entry in [4] and in [7] was “Not Active” throughout.
Take `CC(C)OC(=O)C(C)(C)Oc1ccc(C(=O)c2ccc(Cl)cc2)cc1` [FENOFIBRATE]: the IC50 entry (in test [1]; at B2 bradykinin receptor; in test [2]; in test [3]; against Nitric oxide synthase 1; in [5]) was “Not Active” throughout. Besides, the IC50 entry in [6] is on record as “Not Active”.
Turning to `OCCN1CCN(CCCN2c3ccccc3Sc3ccc(C(F)(F)F)cc32)CC1` [FLUPHENAZINE], the IC50 result (in test [1]; at B2 bradykinin receptor; in test [2]; in test [3]; against Nitric oxide synthase 1; in test [5]) was “Not Active” throughout. Moreover, in [6], the IC50 result is on record as “Not Active”.
Regarding `CN1C2CCCC1CC(NC(=O)c1nn(C)c3ccccc13)C2` (stereo not drawn) [GRANISETRON], the IC50 entry (in test [1]; at B2 bradykinin receptor; in [2]; in test [3]; against Nitric oxide synthase 1; in [5]) was “Not Active” throughout. In addition, in test [6], the IC50 result is on record as “Not Active”.
Regarding `Nc1nc2c(c(=O)[nH]1)N(C=O)C(CNc1ccc(C(=O)N[C@@H](CCC(=O)O)C(=O)O)cc1)CN2` (stereo partly drawn) [LEUCOVORIN], the IC50 entry (in test [1]; against B2 bradykinin receptor; in test [2]; in test [3]; in test [4]; against Nitric oxide synthase 1) was “Not Active” in each case. For the same molecule, the IC50 entry in test [5], in test [6] and in test [7] was “Not Active” throughout. The Ki entry in test [4] and in test [7] was “Not Active” throughout.
On to `CC[C@@H](CO)NC(=O)[C@@H]1C=C2c3cccc4c3c(cn4C)C[C@H]2N(C)C1` [METHYSERGIDE], for which the IC50 entry (in test [1]; on B2 bradykinin receptor; in [2]; in test [3]; against Nitric oxide synthase 1; in test [5]) was “Not Active” throughout. Moreover, the half-maximal inhibitory concentration (IC50) entry in [6] was “Not Active”.
Take `CCN(CC)CC#CCOC(=O)C(O)(c1ccccc1)C1CCCCC1` (stereo not drawn) [OXYBUTYNIN]: the IC50 entry (in test [1]; at B2 bradykinin receptor; in test [2]; in test [3]; on Nitric oxide synthase 1; in test [5]) was “Not Active” throughout. Also, the IC50 entry in [6] is recorded as “Not Active”.
`O=c1n(CCCN2CCN(c3cccc(Cl)c3)CC2)nc2ccccn12` [TRAZODONE]: the IC50 result (in [1]; against B2 bradykinin receptor; in test [2]; in [3]; against Nitric oxide synthase 1; in test [5]) was “Not Active” in each case. Besides, the IC50 result in test [6] is listed as “Not Active”.
